One experiment relates to NCI-H661. Put plainly: Cytotoxicity against human NCI-H661 cells after 72 hrs by WST-8 assay. It counts as functional, cell-based. As to conditions: NCI-H661, 72 h. (Formazan colour is commonly taken as a measure of viable cells.)
A further experiment relates to U-937. Put plainly: Cytotoxicity against human U937 cells after 72 hrs by WST-8 assay. The note with it: U-937, 72 h. It is filed as functional, cell-based.
The subject of a further experiment is A549. The experiment can be described thus: Cytotoxicity against human A549 cells after 72 hrs by WST-8 assay. It is filed as functional, cell-based. The note with it: A549, 72 h.
Another experiment deals with K562. Put plainly: Cytotoxicity against human K562 cells after 72 hrs by WST-8 assay. It counts as functional, cell-based. As to conditions: K562, 72 h.
For a further experiment, the system named is HCT-116. Put plainly: Cytotoxicity against human HCT116 cells after 72 hrs by WST-8 assay. As to conditions: HCT-116, 72 h. It counts as functional, cell-based.
The next experiment has as its system DLD-1. Put plainly: Cytotoxicity against human DLD1 cells after 72 hrs by WST-8 assay. It is filed as functional, cell-based. As to conditions: DLD-1, 72 h.
The target of experiment [1] is Tyrosine-protein kinase ABL1 (Homo sapiens) (UniProt P00519). As to conditions: at 10 µM.
Description: Inhibition of human recombinant ABL at 10 uM relative to control
Experiment [2] addresses Proto-oncogene tyrosine-protein kinase Src (Homo sapiens) (UniProt P12931). As to conditions: at 10 µM.
Description: Inhibition of human recombinant SRC at 10 uM relative to control
Experiment [3] addresses Epidermal growth factor receptor (Homo sapiens) (UniProt P00533). The note with it: at 10 µM.
Description: Inhibition of EGFR (unknown origin) at 10 uM relative to control

SMILES strings stand for the structures.

For 19 molecules, IC50 and inhibition results are on record in ChEMBL document CHEMBL2375301, “Design and synthesis of novel 4-benzothiazole amino quinazolines Dasatinib derivatives as potential anti-tumor agents” (Eur J Med Chem, 2013).

Chain of Proto-oncogene tyrosine-protein kinase Src (Homo sapiens) (P12931 2-536 limits assumed): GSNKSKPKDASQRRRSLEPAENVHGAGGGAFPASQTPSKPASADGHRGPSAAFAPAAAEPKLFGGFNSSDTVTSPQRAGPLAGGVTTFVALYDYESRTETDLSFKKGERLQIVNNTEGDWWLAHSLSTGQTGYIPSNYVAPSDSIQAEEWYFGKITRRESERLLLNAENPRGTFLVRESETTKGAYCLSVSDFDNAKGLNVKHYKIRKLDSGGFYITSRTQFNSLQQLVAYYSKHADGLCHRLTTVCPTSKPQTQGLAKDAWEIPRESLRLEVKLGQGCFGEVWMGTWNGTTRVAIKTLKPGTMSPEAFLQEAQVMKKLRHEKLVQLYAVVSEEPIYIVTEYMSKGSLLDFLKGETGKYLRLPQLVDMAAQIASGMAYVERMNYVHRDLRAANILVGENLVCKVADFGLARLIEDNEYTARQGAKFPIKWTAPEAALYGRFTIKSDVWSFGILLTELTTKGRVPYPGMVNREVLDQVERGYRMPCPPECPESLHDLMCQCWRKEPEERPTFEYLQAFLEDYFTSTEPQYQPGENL
Chain of Tyrosine-protein kinase ABL1 (Homo sapiens) (P00519 whole entry): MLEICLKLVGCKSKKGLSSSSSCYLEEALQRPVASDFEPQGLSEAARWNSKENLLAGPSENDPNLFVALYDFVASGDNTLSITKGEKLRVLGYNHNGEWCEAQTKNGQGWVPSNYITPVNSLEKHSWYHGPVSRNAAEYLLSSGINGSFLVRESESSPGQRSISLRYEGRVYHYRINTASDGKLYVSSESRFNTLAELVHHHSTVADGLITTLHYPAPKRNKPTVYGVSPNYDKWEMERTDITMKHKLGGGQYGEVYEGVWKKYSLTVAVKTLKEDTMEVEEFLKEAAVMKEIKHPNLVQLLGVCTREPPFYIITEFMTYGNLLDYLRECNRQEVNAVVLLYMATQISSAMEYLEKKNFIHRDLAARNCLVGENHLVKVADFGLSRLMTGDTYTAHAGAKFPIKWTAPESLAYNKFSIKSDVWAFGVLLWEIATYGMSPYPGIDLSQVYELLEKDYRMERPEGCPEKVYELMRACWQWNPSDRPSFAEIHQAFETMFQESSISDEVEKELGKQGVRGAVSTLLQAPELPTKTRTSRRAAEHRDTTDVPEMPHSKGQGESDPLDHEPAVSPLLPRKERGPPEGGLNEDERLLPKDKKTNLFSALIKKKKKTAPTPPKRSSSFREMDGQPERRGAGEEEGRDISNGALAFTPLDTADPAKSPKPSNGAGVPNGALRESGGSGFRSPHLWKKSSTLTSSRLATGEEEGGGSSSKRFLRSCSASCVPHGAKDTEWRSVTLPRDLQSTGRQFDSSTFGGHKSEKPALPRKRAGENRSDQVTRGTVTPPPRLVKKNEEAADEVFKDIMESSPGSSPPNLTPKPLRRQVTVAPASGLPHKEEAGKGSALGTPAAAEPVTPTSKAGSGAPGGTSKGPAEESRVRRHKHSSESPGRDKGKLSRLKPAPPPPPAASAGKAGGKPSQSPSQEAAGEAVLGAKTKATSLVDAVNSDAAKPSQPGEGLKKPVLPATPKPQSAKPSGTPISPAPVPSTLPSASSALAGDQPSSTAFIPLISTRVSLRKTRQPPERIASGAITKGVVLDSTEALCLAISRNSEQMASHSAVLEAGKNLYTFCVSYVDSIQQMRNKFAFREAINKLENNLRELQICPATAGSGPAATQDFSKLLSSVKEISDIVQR
Chain of Epidermal growth factor receptor (Homo sapiens) (P00533 whole entry): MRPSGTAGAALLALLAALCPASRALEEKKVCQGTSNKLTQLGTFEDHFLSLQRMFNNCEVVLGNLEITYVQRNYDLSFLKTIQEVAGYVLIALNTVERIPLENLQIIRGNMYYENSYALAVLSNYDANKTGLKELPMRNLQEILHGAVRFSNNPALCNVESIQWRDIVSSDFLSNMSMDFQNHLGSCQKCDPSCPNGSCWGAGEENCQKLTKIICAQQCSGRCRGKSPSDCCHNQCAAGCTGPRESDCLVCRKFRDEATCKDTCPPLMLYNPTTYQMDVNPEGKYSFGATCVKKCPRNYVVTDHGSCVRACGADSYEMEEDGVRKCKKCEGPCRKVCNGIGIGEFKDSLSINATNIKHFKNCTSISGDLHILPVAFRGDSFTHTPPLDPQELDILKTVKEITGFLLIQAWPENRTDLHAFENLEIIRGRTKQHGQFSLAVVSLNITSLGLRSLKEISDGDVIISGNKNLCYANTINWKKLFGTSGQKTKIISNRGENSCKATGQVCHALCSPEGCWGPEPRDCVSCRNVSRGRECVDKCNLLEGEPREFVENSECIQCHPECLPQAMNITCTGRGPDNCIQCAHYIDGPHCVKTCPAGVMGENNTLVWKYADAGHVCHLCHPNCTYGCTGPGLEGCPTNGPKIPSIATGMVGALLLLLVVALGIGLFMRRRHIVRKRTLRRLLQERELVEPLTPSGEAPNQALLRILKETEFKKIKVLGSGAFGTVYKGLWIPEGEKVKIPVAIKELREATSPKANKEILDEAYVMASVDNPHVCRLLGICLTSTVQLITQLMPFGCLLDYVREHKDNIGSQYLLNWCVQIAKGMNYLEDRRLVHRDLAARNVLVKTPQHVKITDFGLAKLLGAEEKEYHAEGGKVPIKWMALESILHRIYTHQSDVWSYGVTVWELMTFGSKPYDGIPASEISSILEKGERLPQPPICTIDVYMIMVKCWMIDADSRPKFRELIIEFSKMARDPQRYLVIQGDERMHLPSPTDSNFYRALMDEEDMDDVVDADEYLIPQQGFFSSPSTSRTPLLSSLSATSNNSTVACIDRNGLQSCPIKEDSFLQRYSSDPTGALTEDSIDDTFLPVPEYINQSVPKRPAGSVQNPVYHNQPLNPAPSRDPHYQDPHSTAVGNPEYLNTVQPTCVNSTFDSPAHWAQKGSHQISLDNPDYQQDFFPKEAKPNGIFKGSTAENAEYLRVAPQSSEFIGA

As for `COc1cc2c(Nc3nc4ccc(C(=O)Nc5c(C)cccc5Cl)cc4s3)ncnc2cc1OCCCN1CCOCC1`, the IC50 in the experiment on NCI-H661 was above 100 µM; in the experiment on U-937 it was 22.6 µM; in the experiment with A549, 75.2 µM; with K562, 16.4 µM; with HCT-116, above 100 µM; with DLD-1, above 100 µM. Further, the inhibition in experiment [1] was 43.7%; in experiment [2], 34.3%; in experiment [3] it was 10.4%.
Turning to `COc1cc2c(Nc3nc4ccc(C(=O)Nc5c(C)cc(C)cc5C)cc4s3)ncnc2cc1OCCCN1CCCCC1C` (configuration not stated), the IC50 was determined as 8.8 µM in the experiment on NCI-H661; 3.6 µM in the experiment with U-937; 5.8 µM in the experiment on A549; 3.5 µM in the experiment with K562; 5.6 µM with HCT-116; 5.7 µM in the experiment with DLD-1. Further, the inhibition was found to be 89.2% in experiment [2] and 65.8% in [3].
Regarding `COc1cc2c(Nc3nc4ccc(C(=O)Nc5c(C)cccc5C)cc4s3)ncnc2cc1OCCCN1CCCCC1`, the concentration for half-maximal inhibition (IC50) in the experiment with NCI-H661 was above 100 µM; in the experiment with U-937, 14.7 µM; with A549 it was above 100 µM; in the experiment with K562 it was 13.7 µM; in the experiment with HCT-116, above 100 µM; in the experiment on DLD-1, above 100 µM. Besides, the values for the inhibition in experiment [1], in [2] and in [3] were 39%, 43.4% and 17.3%, respectively.
For the molecule `COc1cc2c(Nc3nc4ccc(C(=O)Nc5c(C)cccc5Cl)cc4s3)ncnc2cc1OCCCN1CCCCC1C` (configuration not stated), the half-inhibitory concentration (IC50) in the experiment with NCI-H661 is 5.3 µM; with U-937, 7 µM; in the experiment on A549 it was 6.7 µM; in the experiment with K562, 6.8 µM; with HCT-116, 7.2 µM; with DLD-1, 6.7 µM. Further, the inhibition in experiment [1] stood at 71.1%; in experiment [2], 78.9%; in experiment [3], 53.6%.
Turning to `CCN(CC)CCCOc1cc2ncnc(Nc3nc4ccc(C(=O)Nc5c(C)cccc5Cl)cc4s3)c2cc1OC`, the half-maximal inhibitory concentration (IC50) was found to be 11.2 µM in the experiment on NCI-H661; 7.3 µM with U-937; 10.6 µM in the experiment on A549; 9.6 µM in the experiment with K562; 13.2 µM with HCT-116; 11.7 µM in the experiment on DLD-1. Besides, the inhibition in experiment [1] turned out to be 67.1%; in [2], 68.2%; in [3] it was 46.8%.
Turning to `CCN(CC)CCCOc1cc2ncnc(Nc3nc4ccc(C(=O)Nc5c(C)cccc5C)cc4s3)c2cc1OC`, the IC50 in the experiment on NCI-H661 was 66.5 µM; with U-937, 23.7 µM; with A549, above 100 µM; in the experiment with K562, 28.4 µM; in the experiment with HCT-116 it was above 100 µM; in the experiment with DLD-1 it was above 100 µM. Besides, the inhibition in experiment [1] was determined as 50%; in experiment [2], 53.6%; in experiment [3], 10.5%.
Regarding `COc1cc2c(Nc3nc4ccc(C(=O)Nc5c(C)cc(C)cc5C)cc4s3)ncnc2cc1OCCCN1CCCC1`, the IC50 in the experiment on NCI-H661 turned out to be 9.6 µM; with U-937, 4.6 µM; in the experiment with A549 it was 8.9 µM; in the experiment on K562, 4.3 µM; in the experiment on HCT-116, 5.8 µM; in the experiment on DLD-1, 5.9 µM. The values for the inhibition in experiment [1], in experiment [2] and in experiment [3] were 82.3%, 91.8% and 48.7%, respectively.
In the case of `COc1cc2c(Nc3nc4ccc(C(=O)Nc5c(C)cc(C)cc5C)cc4s3)ncnc2cc1OCCCN1CCOCC1`, the IC50 in the experiment with NCI-H661 worked out at 18.4 µM; in the experiment with U-937 it was 24.2 µM; in the experiment with A549 it was 16.3 µM; in the experiment on K562 it was 20 µM; in the experiment on HCT-116, 5.6 µM; in the experiment on DLD-1, 5.8 µM. Also, the inhibition in experiment [1] amounted to 76.5%; in experiment [2], 80.6%; in experiment [3], 45.1%.
Regarding `CCN(CC)CCCOc1cc2ncnc(Nc3nc4ccc(C(=O)Nc5c(C)cc(C)cc5C)cc4s3)c2cc1OC`, the IC50 in the experiment on NCI-H661 came out at 7.3 µM; with U-937 it was 4.3 µM; in the experiment on A549, 5.7 µM; with K562, 6.8 µM; in the experiment with HCT-116, 7.5 µM; in the experiment with DLD-1, 6.8 µM. The figures for the inhibition in experiment [1], in experiment [2] and in experiment [3] were 76.3%, 65.3% and 25.4%, respectively.
Turning to `COc1cc2c(Nc3nc4ccc(C(=O)Nc5c(C)cccc5C)cc4s3)ncnc2cc1OCCCN1CCCCC1C` (configuration not stated), the IC50 with NCI-H661 is 84.4 µM; in the experiment with U-937, 10.8 µM; in the experiment on A549, 75.7 µM; with K562 it was 12.3 µM; in the experiment on HCT-116, above 100 µM; in the experiment with DLD-1, above 100 µM. The inhibition was 49.2% in experiment [1], 49% in [2] and 25.4% in experiment [3].
For `Cc1nc(Nc2ncc(C(=O)Nc3c(C)cccc3Cl)s2)cc(N2CCN(CCO)CC2)n1` [DASATINIB], the IC50 in the experiment with NCI-H661 was 7.8 µM; in the experiment on U-937 it was 12.2 µM; with A549 it was 8.2 µM; in the experiment on K562, 11.9 µM; in the experiment on HCT-116 it was 5.3 µM; in the experiment with DLD-1 it was 4.6 µM.
For `COc1cc2c(Nc3nc4ccc(C(=O)Nc5c(C)cccc5C)cc4s3)ncnc2cc1OCCCN1CCCC1`, the 50% inhibitory concentration (IC50) is above 100 µM with NCI-H661; 18.9 µM in the experiment on U-937; 83.8 µM in the experiment on A549; 15.7 µM in the experiment on K562; above 100 µM in the experiment on HCT-116; above 100 µM with DLD-1. The inhibition in experiment [1] stood at 34.3%; in experiment [2] it was 39.9%; in experiment [3], 21.2%.
For `COc1cc2c(Nc3nc4ccc(C(=O)Nc5c(C)cccc5Cl)cc4s3)ncnc2cc1OCCCN1CCCC1`, the IC50 is 45.5 µM in the experiment on NCI-H661; 19.9 µM in the experiment on U-937; 38.6 µM in the experiment on A549; 13.3 µM with K562; 63.8 µM in the experiment on HCT-116; 60.7 µM in the experiment with DLD-1. Moreover, the inhibition in [1] was found to be 78.7%; in experiment [2], 55.7%; in [3], 15.6%.
Regarding `COc1cc2c(Nc3nc4ccc(C(=O)Nc5c(C)cccc5C)cc4s3)ncnc2cc1OCCCN1CCC(C)CC1`, the IC50 was 72.3 µM in the experiment with NCI-H661; 11.2 µM in the experiment with U-937; 89.7 µM in the experiment with A549; 15.8 µM in the experiment on K562; above 100 µM in the experiment on HCT-116; above 100 µM in the experiment with DLD-1. Besides, the inhibition in experiment [1] stood at 54.2%; in [2], 56.5%; in experiment [3] it was 13.3%.
Consider `COc1cc2c(Nc3nc4ccc(C(=O)Nc5c(C)cccc5C)cc4s3)ncnc2cc1OCCCN1CCOCC1`, for which the IC50 is above 100 µM in the experiment on NCI-H661; 19.2 µM with U-937; above 100 µM in the experiment on A549; above 100 µM in the experiment on K562; above 100 µM in the experiment with HCT-116; above 100 µM in the experiment with DLD-1. Also, the inhibition came to 41.7% in experiment [1], 28.7% in experiment [2] and 9.9% in [3].
For the molecule `COc1cc2c(Nc3nc4ccc(C(=O)Nc5c(C)cccc5Cl)cc4s3)ncnc2cc1OCCCN1CCC(C)CC1`, the IC50 turned out to be 7.9 µM in the experiment on NCI-H661; 9.2 µM in the experiment with U-937; 9.7 µM in the experiment on A549; 8.3 µM in the experiment on K562; 9.1 µM in the experiment with HCT-116; 11.3 µM in the experiment on DLD-1. Moreover, the inhibition in experiment [1] was found to be 56.2%; in experiment [2], 67.4%; in [3], 23.7%.
On to `COc1cc2c(Nc3nc4ccc(C(=O)Nc5c(C)cc(C)cc5C)cc4s3)ncnc2cc1OCCCN1CCCCC1`, for which the 50% inhibitory concentration (IC50) in the experiment on NCI-H661 was determined as 10 µM; in the experiment with U-937 it was 12.2 µM; with A549, 10.3 µM; with K562, 9.3 µM; with HCT-116, 16.9 µM; in the experiment on DLD-1 it was 24.5 µM. In addition, the inhibition in [1] was found to be 81.6%; in experiment [2] it was 69.7%; in experiment [3], 37.9%.
For `COc1cc2c(Nc3nc4ccc(C(=O)Nc5c(C)cccc5Cl)cc4s3)ncnc2cc1OCCCN1CCCCC1`, the IC50 in the experiment with NCI-H661 was 13.8 µM; with U-937, 8.6 µM; in the experiment on A549 it was 12.8 µM; in the experiment with K562, 12.5 µM; with HCT-116 it was 23.4 µM; with DLD-1 it was 14.7 µM. Also, the figures for the inhibition in [1], in experiment [2] and in experiment [3] were 49.9%, 83.3% and 28.7%, respectively.
On to `COc1cc2c(Nc3nc4ccc(C(=O)Nc5c(C)cc(C)cc5C)cc4s3)ncnc2cc1OCCCN1CCC(C)CC1`, for which the IC50 was 7.7 µM in the experiment with NCI-H661; 5.6 µM with U-937; 5.4 µM with A549; 5.9 µM with K562; 6.9 µM in the experiment on HCT-116; 7 µM in the experiment on DLD-1. The figures for the inhibition in [1], in experiment [2] and in [3] were 68.2%, 78.6% and 36.3%, respectively.

As a reminder, the IC50 is the midpoint of a concentration-inhibition curve. For orientation: inhibition means the relative decrease from the control value, in per cent. Read a low inhibition as a weak effect.
